Measurements reported in patent US8173638B2 (Boehringer Ingelheim International GmbH, priority 2006, dated 2012).

Biological target: T1, human CB2R (Homo sapiens, UniProt P34972)
T1 construct: host or cells: CHO cells
Assay: CB2R mediated modulation of cAMP synthesis
Format: cell-based
Conditions: not given
Experimental: B. CB2R Mediated Modulation of cAMP Synthesis:
CHO cells expressing human CB2R (Euroscreen) were plated at a density of 5000 cells per well in 384 well plates and incubated overnight at 37° C. After removing the media, the cells were treated with test compounds diluted in stimulation buffer containing 1 mM IBMX, 0.25% BSA and 10 uM Forskolin. The assay was incubated for 30 minutes at 37° C. Cells were lysed and the cAMP concentration was measured using DiscoverX-XS cAMP kit, following the manufacturer's protocol. In this setting, agonists will decrease forskolin induced production of cAMP while inverse agonists will further increase forskolin induced production of cAMP. EC50 of agonists were calculated as follows. The maximal amount of cAMP produced by forskolin compared to the level of cAMP inhibited by 1 uM CP55940 is defined as 100%. […] Data was analyzed using a four-parameter logistic model. (Model 205 of XLfit 4.0).

T1 sequence (P34972 whole entry): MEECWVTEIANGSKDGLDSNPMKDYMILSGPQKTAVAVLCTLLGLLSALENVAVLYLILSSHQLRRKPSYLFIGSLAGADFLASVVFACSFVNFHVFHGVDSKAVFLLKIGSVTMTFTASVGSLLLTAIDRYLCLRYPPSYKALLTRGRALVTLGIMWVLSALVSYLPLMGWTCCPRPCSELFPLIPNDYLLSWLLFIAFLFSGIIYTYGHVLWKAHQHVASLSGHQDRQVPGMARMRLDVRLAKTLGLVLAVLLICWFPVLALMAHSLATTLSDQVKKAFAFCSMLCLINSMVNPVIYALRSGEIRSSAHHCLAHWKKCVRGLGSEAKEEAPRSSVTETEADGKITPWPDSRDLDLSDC

SMILES | EC50
CC(C)(C)c1cc(NC(=O)N2CCCN(C(=O)c3ccc(C(F)(F)F)cc3)CC2)no1 [Compound 154, 4-(4-Trifluoromethyl-benzoyl)-[1,4]diazepane-1-carboxylic acid (5-tert-butyl-isoxazol-3-yl)-amide] | 1.5 nM
CC(C)(C)c1cc(NC(=O)N2CCCN(C(=O)N3CCCCC3)CC2)no1 [Compound 198, 4-(Piperidine-1-carbonyl)-[1,4]diazepane-1-carboxylic acid (5-tert-butyl-isoxazol-3-yl)-amide] | 47 nM

Same assay, conditions: 0.5 h; CHO cells expressing human CB2R; cAMP inhibited by 1 uM CP55940 defined as 100%; read-out: Agonist Efficacy (%)

Emax | SMILES
95% | Cc1nc(NC(=O)N2CCCN(C(=O)C3CCC(F)(F)CC3)CC2)sc1C(C)(C)C [Compound 169, 4-(4,4-Difluoro-cyclohexanecarbonyl)-[1,4]diazepane-1-carboxylic acid (5-tert-butyl-4-methyl-thiazol-2-yl)-amide]
103% | CC(C)(C)c1ccc(NC(=O)N2CCCN(C(=O)CN3CCSCC3)CC2)cc1 [Compound 121, 4-(2-Thiomorpholin-4-yl-acetyl)-[1,4]diazepane-1-carboxylic acid (4-tert-butyl-phenyl)-amide]
104% | CC(C)(C)c1cc(NC(=O)N2CCCN(C(=O)CN3CCC(F)(F)CC3)CC2)no1 [Compound 229, 4-[2-(4,4-Difluoro-piperidin-1-yl)-acetyl]-[1,4]diazepane-1-carboxylic acid (5-tert-butyl-isoxazol-3-yl)-amide]

Same assay, conditions: CHO, 0.5 h, read-out: Agonist Efficacy (%)

SMILES | Emax
COC1CCC(C(=O)N2CCCN(C(=O)Nc3cc(C(C)(C)C)on3)CC2)CC1 (centres unmarked) [Compound 155, 4-(4-Methoxy-cyclohexanecarbonyl)-[1,4]diazepane-1-carboxylic acid (5-tert-butyl-isoxazol-3-yl)-amide] | 101%
CC(C)(C)c1cc(NC(=O)N2CCCN(C(=O)c3ccc(C(F)(F)F)cc3)CC2)no1 [Compound 154, 4-(4-Trifluoromethyl-benzoyl)-[1,4]diazepane-1-carboxylic acid (5-tert-butyl-isoxazol-3-yl)-amide] | 103%
CC(C)(C)c1cc(NC(=O)N2CCCN(C(=O)N3CCCCC3)CC2)no1 [Compound 198, 4-(Piperidine-1-carbonyl)-[1,4]diazepane-1-carboxylic acid (5-tert-butyl-isoxazol-3-yl)-amide] | 99%

Same assay, conditions: found through the use of the described assays (CB2 agonists); qualitative statement

SMILES | agonistic activity
CCc1ccc(NC(=O)N2CCCN(C(=O)CCC3CCCC3)CC2)cc1 [4-(3-Cyclopentyl-propionyl)-[1,4]diazepane-1-carboxylic acid (4-ethyl-phenyl)-amide] | agonistic activity
CC(C)(C)c1cc(NC(=O)N2CCCN(C(=O)C3CCCOC3)CC2)no1 (centres unmarked) [4-(Tetrahydro-pyran-3-carbonyl)-[1,4]diazepane-1-carboxylic acid (5-tert-butyl-isoxazol-3-yl)-amide] | agonistic activity
O=C(Nc1nc2c(s1)CCCC2)N1CCCN(C(=O)N2CCS(=O)(=O)CC2)CC1 [4-(1,1-Dioxo-1λ^6-thiomorpholine-4-carbonyl)-[1,4]diazepane-1-carboxylic acid (4,5,6,7-tetrahydro-benzothiazol-2-yl)-amide] | agonistic activity
O=C(COc1ccccc1)N1CCCN(C(=O)Nc2ccc3ccccc3c2)CC1 [4-(2-Phenoxy-acetyl)-[1,4]diazepane-1-carboxylic acid naphthalen-2-ylamide] | agonistic activity
CCCCc1ccc(NC(=O)N2CCCN(C(=O)CC3CCCCC3)CC2)cc1 [4-(2-Cyclohexyl-acetyl)-[1,4]diazepane-1-carboxylic acid (4-butyl-phenyl)-amide] | agonistic activity
CC(C)(C)c1cc(NC(=O)N2CCCN(C(=O)C3CCOCC3)CC2)no1 [4-(Tetrahydro-pyran-4-carbonyl)-[1,4]diazepane-1-carboxylic acid (5-tert-butyl-isoxazol-3-yl)-amide] | agonistic activity
CC(C)(C)c1cc(NC(=O)N2CCCN(C(=O)CN3CCC(F)(F)CC3)CC2)no1 [4-[2-(4,4-Difluoro-piperidin-1-yl)-acetyl]-[1,4]diazepane-1-carboxylic acid (5-tert-butyl-isoxazol-3-yl)-amide] | agonistic activity
CC(C)(C)c1cc(NC(=O)N2CCCN(C(=O)c3ccc(Cl)cc3)CC2)no1 [4-(4-Chloro-benzoyl)-[1,4]diazepane-1-carboxylic acid (5-tert-butyl-isoxazol-3-yl)-amide] | agonistic activity
CC(C)(C)c1cc(NC(=O)N2CCCN(C(=O)C3CCCCO3)CC2)no1 (centres unmarked) [4-(Tetrahydro-pyran-2-carbonyl)-[1,4]diazepane-1-carboxylic acid (5-tert-butyl-isoxazol-3-yl)-amide] | agonistic activity
O=C(Nc1cc(-c2ccccc2)no1)N1CCCN(C(=O)C2CCOCC2)CC1 [4-(Tetrahydro-pyran-4-carbonyl)-[1,4]diazepane-1-carboxylic acid (3-phenyl-isoxazol-5-yl)-amide] | agonistic activity
CC(C)(C)c1cc(NC(=O)N2CCCN(C(=O)C3CCC(=O)CC3)CC2)no1 [4-(4-Oxo-cyclohexanecarbonyl)-[1,4]diazepane-1-carboxylic acid (5-tert-butyl-isoxazol-3-yl)-amide] | agonistic activity
CC(C)(C)c1cnc(NC(=O)N2CCCN(C(=O)N3CCS(=O)(=O)CC3)CC2)s1 [4-(1,1-Dioxo-1λ^6-thiomorpholine-4-carbonyl)-[1,4]diazepane-1-carboxylic acid (5-tert-butyl-thiazol-2-yl)-amide] | agonistic activity
O=C(Nc1nc(-c2ccccc2)cs1)N1CCCN(C(=O)N2CCOCC2)CC1 [4-(Morpholine-4-carbonyl)-[1,4]diazepane-1-carboxylic acid (4-phenyl-thiazol-2-yl)-amide] | agonistic activity
CC(C)(C)c1cc(NC(=O)N2CCCN(C(=O)C3CCC(N)CC3)CC2)no1 (centres unmarked) [4-(4-Amino-cyclohexanecarbonyl)-[1,4]diazepane-1-carboxylic acid (5-tert-butyl-isoxazol-3-yl)-amide] | agonistic activity

The remaining lines, values ahead:

agonistic activity | SMILES
agonistic activity | CSc1ccc(NC(=O)N2CCCN(C(=O)CCC3CCCC3)CC2)cc1 [4-(3-Cyclopentyl-propionyl)-[1,4]diazepane-1-carboxylic acid (4-methylsulfanyl-phenyl)-amide]
agonistic activity | O=C(CC1CCOCC1)N1CCCN(C(=O)Nc2cc(Cl)cc(Cl)c2)CC1 [4-(2-Tetrahydro-pyran-4-yl-acetyl)-[1,4]diazepane-1-carboxylic acid (3,5-dichloro-phenyl)-amide]
agonistic activity | CC(C)(C)c1ccc(NC(=O)N2CCCN(C(=O)CCC3CCCCC3)CC2)cc1 [4-(3-Cyclohexyl-propionyl)-[1,4]diazepane-1-carboxylic acid (4-tert-butyl-phenyl)-amide]
agonistic activity | O=C(Nc1ccc(SC(F)(F)F)cc1)N1CCCN(C(=O)C2CCCCC2)CC1 [4-Cyclohexanecarbonyl-[1,4]diazepane-1-carboxylic acid (4-trifluoromethylsulfanyl-phenyl)-amide]
agonistic activity | CC(C)(C)c1ccc(NC(=O)N2CCCN(C(=O)CCC3CC3)CC2)cc1 [4-(3-Cyclopropyl-propionyl)-[1,4]diazepane-1-carboxylic acid (4-tert-butyl-phenyl)-amide]
agonistic activity | CC(c1ccc(NC(=O)N2CCCN(C(=O)N3CCS(=O)(=O)CC3)CC2)cc1)C(F)(F)F (centres unmarked) [4-(1,1-Dioxo-1λ^6-thiomorpholine-4-carbonyl)-[1,4]diazepane-1-carboxylic acid [4-(2,2,2-trifluoro-1-methyl-ethyl)-phenyl]-amide]
agonistic activity | O=C(Nc1ccc(C(F)(F)F)cn1)N1CCCN(C(=O)C2CCOCC2)CC1 [4-(Tetrahydro-pyran-4-carbonyl)-[1,4]diazepane-1-carboxylic acid (5-trifluoromethyl-pyridin-2-yl)-amide]
agonistic activity | CN(C)c1ccc(NC(=O)N2CCCN(C(=O)CCC3CCCC3)CC2)cc1 [4-(3-Cyclopentyl-propionyl)-[1,4]diazepane-1-carboxylic acid (4-dimethylamino-phenyl)-amide]
agonistic activity | CC(C)(C)c1ccc(NC(=O)N2CCCN(C(=O)N3CCS(=O)(=O)CC3)CC2)cc1 [4-(1,1-Dioxo-1λ^6-thiomorpholine-4-carbonyl)-[1,4]diazepane-1-carboxylic acid (4-tert-butyl-phenyl)-amide]
agonistic activity | CCC(C)c1ccc(NC(=O)N2CCCN(C(=O)C3CCOCC3)CC2)cc1 (centres unmarked) [4-(Tetrahydro-pyran-4-carbonyl)-[1,4]diazepane-1-carboxylic acid (4-sec-butyl-phenyl)-amide]
agonistic activity | O=C(CCC1CCCC1)N1CCCN(C(=O)Nc2ccc3ccccc3c2)CC1 [4-(3-Cyclopentyl-propionyl)-[1,4]diazepane-1-carboxylic acid naphthalen-2-ylamide]
agonistic activity | Cc1cccc(NC(=O)N2CCCN(C(=O)CCC3CCCC3)CC2)c1 [4-(3-Cyclopentyl-propionyl)-[1,4]diazepane-1-carboxylic acid m-tolylamide]
agonistic activity | CC(C)(C)c1cc(NC(=O)N2CCCN(C(=O)C3CCCCC3)CC2)no1 [4-Cyclohexanecarbonyl-[1,4]diazepane-1-carboxylic acid (5-tert-butyl-isoxazol-3-yl)-amide]
agonistic activity | CSc1ccc(NC(=O)N2CCCN(C(=O)CC3CCCC3)CC2)cc1 [4-(2-Cyclopentyl-acetyl)-[1,4]diazepane-1-carboxylic acid (4-methylsulfanyl-phenyl)-amide]
agonistic activity | O=C(CCC1CCCC1)N1CCCN(C(=O)NC2CCCCC2)CC1 [4-(3-Cyclopentyl-propionyl)-[1,4]diazepane-1-carboxylic acid cyclohexylamide]

Same assay, conditions: read-out: hCB2 cAMP EC50

EC50 | SMILES
0.7 nM | Cc1nc(NC(=O)N2CCCN(C(=O)C3CCC(F)(F)CC3)CC2)sc1C(C)(C)C [Compound 169, 4-(4,4-Difluoro-cyclohexanecarbonyl)-[1,4]diazepane-1-carboxylic acid (5-tert-butyl-4-methyl-thiazol-2-yl)-amide]
36 nM | CC(C)(C)c1ccc(NC(=O)N2CCCN(C(=O)CN3CCSCC3)CC2)cc1 [Compound 121, 4-(2-Thiomorpholin-4-yl-acetyl)-[1,4]diazepane-1-carboxylic acid (4-tert-butyl-phenyl)-amide]
24 nM | CC(C)(C)c1cc(NC(=O)N2CCCN(C(=O)CN3CCC(F)(F)CC3)CC2)no1 [Compound 229, 4-[2-(4,4-Difluoro-piperidin-1-yl)-acetyl]-[1,4]diazepane-1-carboxylic acid (5-tert-butyl-isoxazol-3-yl)-amide]

SMILES | EC50
COC1CCC(C(=O)N2CCCN(C(=O)Nc3cc(C(C)(C)C)on3)CC2)CC1 (centres unmarked) [Compound 155, 4-(4-Methoxy-cyclohexanecarbonyl)-[1,4]diazepane-1-carboxylic acid (5-tert-butyl-isoxazol-3-yl)-amide] | 110 nM
